Laboratory results published in patent publication US8361802B2, “Fluorescent ozone sensor” (University of Pittsburgh—Of the Commonwealth System of …, priority 2009, dated 2013).

What was measured:
[1] = Ozone detection in nasal fluid; conditions: ozone ~5 μM
Method: FIG. 2D illustrates Ozone detection in nasal fluid, wherein Left Sample: 4, no ozone; Right Sample: 4, + ozone.
One embodiment of the present invention is a biomedical probe to detect ozone. Since ozone is believed to be much too reactive to reach and permeate the epithelial cells, ozone detection in the presence of various antioxidants that are found in the epithelial lining fluid was attempted. […] Nasal fluid was tested to more accurately mimic the epithelial lining fluid of the lung.
Ozone detection in human pleural fluid. Human pleural fluid (1.0 mL) was diluted in pH 7 buffer ([PO4^3−]=5 mM) (3.0 mL). Solution A (5.0 μL, [compound 4]final=12.5 μM) was added to the resulting human pleural fluid mixture, and the samples were exposed to ozone (˜5 μM) at 24° C. followed by 1 hour incubation at 37° C. before fluorescence measurement. The experiment was performed in triplicate with an illustration of one of the tests represented in FIG. 2D.

[2] = Time-dependence of the conversion of compound 4 to compound 7; conditions: 37° C.
Method: Time-dependence of the conversion of compound 4 to compound 7 in buffer. Solution A ([compound 4]final=12.5 μM) was added to a mixture of MeOH/pH 7 buffer ([PO4^3−]=5 mM) (5:95) (4.0 mL), and the sample was exposed to ozone (˜5 μM) at 24° C. followed by incubation at 37° C. Aliquots of the reaction mixture were taken out at various times for fluorescence measurement (FIG. S6). The conversion of compound 4 to compound 7 requires 60 minutes for completion (presumably the β-elimination is the rate determining step because the formation and fragmentation of molozonides are extremely rapid), but 10-15 minutes is sufficient to observe fluorescence signal.
FIG. 7 illustrates time-dependence of the conversion of compound 4 to compound 7 in cell culture media at 37° C. […]. Solution A ([compound 4]final=12.5 μM) was added to a mixture of 10% FBS in RPMI-1640 cell culture media/pH 7 buffer ([PO4^3−]=5 mM) (1:3) (4.0 mL), and the sample was exposed to ozone (˜5 μM) at 24° C. followed by incubation at 37° C. Aliquots of the reaction mixture were taken out at various times for fluorescence measurement (FIG. 8). The conversion of compound 4 to compound 7 requires 15-20 minutes for completion, but <5 minutes is sufficient to observe fluorescence signal. Although the exact mechanism of this enhancement is not known, catalysis of a β-elimination by action of bovine serum albumin has been previously reported.

[3] = 10% FBS in RPMI-1640 cell culture media/pH 7 buffer (1:3)
[4] = MeOH/pH 7 buffer (5:95), ozone ~5 μM

C=CCCOc1cc2oc3cc(=O)c(Cl)cc-3c(-c3ccccc3CO)c2cc1Cl [compound 4]
S/B [1]: 92
time required for completion of conversion of compound 4 to compound 7 [2, 3]: 15 to 20 min
time sufficient to observe fluorescence signal [2, 3]: < 5 min
time required for completion of conversion of compound 4 to compound 7 [2, 4]: 60 min
time sufficient to observe fluorescence signal [2, 4]: 10 to 15 min
